Results taken from ChEMBL document CHEMBL5108011, “Design, synthesis and antitumor evaluation of ATP dual-mimic 2,4-diarylaminopyrimidine and aminoindazole conjugates as potent anaplastic lymphoma kinase inhibitors” (Eur J Med Chem, 2022).
Calls of active or inactive are those of the source. The calls are words filed in the database; no cut-off is given here.

Tests used:
[1] = biological target: ALK tyrosine kinase receptor (Homo sapiens, UniProt Q9UM73); experiment: Inhibition of ALK (unknown origin) incubated for 1 hr and measured by mobility shift assay
ALK tyrosine kinase receptor (Homo sapiens, UniProt Q9UM73), sequence (Q9UM73 whole entry): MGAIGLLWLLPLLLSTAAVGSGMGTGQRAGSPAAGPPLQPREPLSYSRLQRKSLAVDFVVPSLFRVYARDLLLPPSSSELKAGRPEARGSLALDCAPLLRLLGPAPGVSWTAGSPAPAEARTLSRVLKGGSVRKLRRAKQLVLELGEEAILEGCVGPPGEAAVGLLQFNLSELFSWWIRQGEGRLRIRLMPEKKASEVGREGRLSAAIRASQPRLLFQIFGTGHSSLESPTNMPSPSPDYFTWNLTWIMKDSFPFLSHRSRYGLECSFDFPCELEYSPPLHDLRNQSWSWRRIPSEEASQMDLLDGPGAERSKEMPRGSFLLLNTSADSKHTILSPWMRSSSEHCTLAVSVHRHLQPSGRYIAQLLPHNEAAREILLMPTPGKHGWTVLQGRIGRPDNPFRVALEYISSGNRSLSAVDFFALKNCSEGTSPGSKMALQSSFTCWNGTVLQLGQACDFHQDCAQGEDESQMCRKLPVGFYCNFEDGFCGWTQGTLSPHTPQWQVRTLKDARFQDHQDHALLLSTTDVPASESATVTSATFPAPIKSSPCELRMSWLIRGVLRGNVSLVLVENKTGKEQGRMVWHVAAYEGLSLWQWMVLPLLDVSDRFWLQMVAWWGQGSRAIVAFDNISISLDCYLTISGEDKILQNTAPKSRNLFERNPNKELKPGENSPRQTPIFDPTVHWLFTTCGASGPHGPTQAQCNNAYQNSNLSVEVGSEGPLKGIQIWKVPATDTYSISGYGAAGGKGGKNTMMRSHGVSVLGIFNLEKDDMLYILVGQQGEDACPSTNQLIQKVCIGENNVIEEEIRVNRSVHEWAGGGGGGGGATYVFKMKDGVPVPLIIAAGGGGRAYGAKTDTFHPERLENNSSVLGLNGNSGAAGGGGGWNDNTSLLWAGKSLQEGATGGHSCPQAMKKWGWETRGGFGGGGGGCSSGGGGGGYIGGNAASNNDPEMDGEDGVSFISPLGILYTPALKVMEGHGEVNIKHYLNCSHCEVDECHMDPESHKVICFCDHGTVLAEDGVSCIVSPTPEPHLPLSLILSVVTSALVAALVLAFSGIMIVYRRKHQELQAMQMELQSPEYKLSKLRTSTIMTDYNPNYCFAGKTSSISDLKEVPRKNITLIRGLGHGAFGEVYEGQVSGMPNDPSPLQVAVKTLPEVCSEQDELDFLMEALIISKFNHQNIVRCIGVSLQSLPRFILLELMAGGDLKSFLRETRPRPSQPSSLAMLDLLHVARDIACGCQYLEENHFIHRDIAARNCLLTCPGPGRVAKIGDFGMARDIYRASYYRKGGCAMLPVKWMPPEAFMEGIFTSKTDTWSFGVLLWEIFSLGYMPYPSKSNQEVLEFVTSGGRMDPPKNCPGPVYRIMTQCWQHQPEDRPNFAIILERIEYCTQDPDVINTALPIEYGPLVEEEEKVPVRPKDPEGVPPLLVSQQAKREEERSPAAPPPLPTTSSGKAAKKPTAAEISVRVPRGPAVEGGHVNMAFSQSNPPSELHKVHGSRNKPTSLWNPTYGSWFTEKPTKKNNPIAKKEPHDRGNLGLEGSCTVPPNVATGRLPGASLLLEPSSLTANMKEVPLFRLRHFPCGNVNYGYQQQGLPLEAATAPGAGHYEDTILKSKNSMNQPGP

[2] = biological target: ALK tyrosine kinase receptor (Homo sapiens, UniProt Q9UM73, L1196M); experiment: Inhibition of ALK L1196M mutant (unknown origin) incubated for 1 hr and measured by mobility shift assay
ALK tyrosine kinase receptor (Homo sapiens, UniProt Q9UM73, L1196M), sequence (Q9UM73 19-1620 L1196M limits assumed): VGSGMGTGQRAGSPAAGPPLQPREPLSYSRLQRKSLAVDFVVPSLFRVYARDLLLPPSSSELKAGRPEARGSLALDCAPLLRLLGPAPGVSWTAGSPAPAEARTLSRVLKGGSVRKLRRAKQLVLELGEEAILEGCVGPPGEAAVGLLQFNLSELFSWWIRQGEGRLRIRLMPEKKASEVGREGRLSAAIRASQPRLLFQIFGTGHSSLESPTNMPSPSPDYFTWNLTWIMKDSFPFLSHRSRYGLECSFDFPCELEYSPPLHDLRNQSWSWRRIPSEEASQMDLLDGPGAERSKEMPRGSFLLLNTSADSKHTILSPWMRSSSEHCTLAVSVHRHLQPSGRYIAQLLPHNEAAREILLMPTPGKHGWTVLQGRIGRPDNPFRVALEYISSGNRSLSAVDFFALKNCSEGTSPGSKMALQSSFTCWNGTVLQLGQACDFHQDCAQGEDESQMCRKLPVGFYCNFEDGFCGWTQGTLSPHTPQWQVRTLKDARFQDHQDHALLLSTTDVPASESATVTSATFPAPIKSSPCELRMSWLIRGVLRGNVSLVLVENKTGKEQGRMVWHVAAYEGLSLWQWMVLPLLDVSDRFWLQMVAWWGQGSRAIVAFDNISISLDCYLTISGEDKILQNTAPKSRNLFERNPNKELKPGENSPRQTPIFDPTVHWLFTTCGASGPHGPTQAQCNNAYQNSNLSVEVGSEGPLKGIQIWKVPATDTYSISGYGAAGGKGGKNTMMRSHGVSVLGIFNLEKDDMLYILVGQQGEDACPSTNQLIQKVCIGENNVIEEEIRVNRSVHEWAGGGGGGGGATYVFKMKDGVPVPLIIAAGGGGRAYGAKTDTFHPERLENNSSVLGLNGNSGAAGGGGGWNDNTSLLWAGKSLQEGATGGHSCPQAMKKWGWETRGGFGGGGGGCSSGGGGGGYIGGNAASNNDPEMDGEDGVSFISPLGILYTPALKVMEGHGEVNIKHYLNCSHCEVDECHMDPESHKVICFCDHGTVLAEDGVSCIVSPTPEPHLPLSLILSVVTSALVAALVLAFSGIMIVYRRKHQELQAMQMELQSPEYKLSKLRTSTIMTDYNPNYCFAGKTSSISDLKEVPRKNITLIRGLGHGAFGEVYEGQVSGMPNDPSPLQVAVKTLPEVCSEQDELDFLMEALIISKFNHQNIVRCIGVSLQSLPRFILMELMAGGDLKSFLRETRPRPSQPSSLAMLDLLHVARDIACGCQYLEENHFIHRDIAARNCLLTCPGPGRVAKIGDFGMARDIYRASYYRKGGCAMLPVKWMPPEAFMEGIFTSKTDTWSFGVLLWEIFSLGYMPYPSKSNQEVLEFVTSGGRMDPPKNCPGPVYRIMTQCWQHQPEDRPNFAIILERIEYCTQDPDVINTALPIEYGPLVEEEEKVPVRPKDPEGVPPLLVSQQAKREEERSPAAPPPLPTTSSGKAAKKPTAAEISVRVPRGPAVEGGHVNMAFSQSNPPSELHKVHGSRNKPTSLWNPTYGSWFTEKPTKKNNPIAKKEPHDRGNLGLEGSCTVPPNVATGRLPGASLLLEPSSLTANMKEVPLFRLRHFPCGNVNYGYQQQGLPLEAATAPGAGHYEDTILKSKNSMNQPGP

[3] = biological target: ALK tyrosine kinase receptor (Homo sapiens, UniProt Q9UM73, G1202R); experiment: Inhibition of ALK G1202R mutant (unknown origin) incubated for 1 hr and measured by mobility shift assay
ALK tyrosine kinase receptor (Homo sapiens, UniProt Q9UM73, G1202R), sequence (Q9UM73 19-1620 G1202R limits assumed): as the sequence (Q9UM73 19-1620 L1196M limits assumed) above, with M1178L, G1184R counted along it

[4] = biological target: Epidermal growth factor receptor (Homo sapiens, UniProt P00533); experiment: Inhibition of EGFR (unknown origin) incubated for 1 hr and measured by mobility shift assay
Epidermal growth factor receptor, sequence (P00533 whole entry): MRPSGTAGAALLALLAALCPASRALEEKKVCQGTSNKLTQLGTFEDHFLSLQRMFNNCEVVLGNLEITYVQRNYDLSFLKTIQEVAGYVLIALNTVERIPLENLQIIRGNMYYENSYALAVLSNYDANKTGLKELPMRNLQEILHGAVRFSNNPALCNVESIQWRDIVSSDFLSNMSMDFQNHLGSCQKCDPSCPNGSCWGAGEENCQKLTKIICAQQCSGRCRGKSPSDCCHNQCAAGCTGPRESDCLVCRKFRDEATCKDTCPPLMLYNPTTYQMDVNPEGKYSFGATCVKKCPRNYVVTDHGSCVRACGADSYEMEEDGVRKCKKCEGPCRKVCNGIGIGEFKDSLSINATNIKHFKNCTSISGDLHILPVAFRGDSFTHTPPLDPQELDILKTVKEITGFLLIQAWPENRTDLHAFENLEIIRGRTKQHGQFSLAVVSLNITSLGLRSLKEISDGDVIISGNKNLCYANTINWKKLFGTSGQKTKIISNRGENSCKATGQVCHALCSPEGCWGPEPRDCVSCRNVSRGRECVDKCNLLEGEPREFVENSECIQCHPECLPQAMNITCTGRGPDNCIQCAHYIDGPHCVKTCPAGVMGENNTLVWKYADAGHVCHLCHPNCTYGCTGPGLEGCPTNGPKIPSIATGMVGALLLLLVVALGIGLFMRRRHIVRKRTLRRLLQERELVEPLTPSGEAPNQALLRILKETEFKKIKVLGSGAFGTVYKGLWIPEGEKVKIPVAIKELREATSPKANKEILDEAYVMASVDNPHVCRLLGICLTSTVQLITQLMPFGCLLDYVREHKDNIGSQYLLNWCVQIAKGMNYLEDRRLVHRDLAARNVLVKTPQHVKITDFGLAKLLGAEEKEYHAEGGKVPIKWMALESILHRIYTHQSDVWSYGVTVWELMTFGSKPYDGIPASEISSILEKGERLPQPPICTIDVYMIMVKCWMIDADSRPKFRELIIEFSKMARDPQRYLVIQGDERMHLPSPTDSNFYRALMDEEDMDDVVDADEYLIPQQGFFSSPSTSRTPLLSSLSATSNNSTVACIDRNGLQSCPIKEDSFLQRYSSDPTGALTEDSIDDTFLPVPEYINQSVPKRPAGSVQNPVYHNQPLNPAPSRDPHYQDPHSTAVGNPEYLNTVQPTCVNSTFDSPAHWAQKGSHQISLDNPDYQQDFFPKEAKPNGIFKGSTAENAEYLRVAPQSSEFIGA

NCI-H460 = experiment: Antiproliferative activity against human NCI-H460 cells incubated for 72 hrs and measured by CCK-8 assay; assay type: functional, cell-based; settings: NCI-H460, 72 h
NCI-H1581 = experiment: Antiproliferative activity against human NCI-H1581 cells incubated for 72 hrs and measured by CCK-8 assay; assay type: functional, cell-based; settings: NCI-H1581, 72 h
MCF7 = experiment: Antiproliferative activity against human MCF7 cells incubated for 72 hrs and measured by CCK-8 assay; assay type: functional, cell-based; settings: MCF7, 72 h
HCT-116 = experiment: Antiproliferative activity against human HCT-116 cells incubated for 72 hrs and measured by CCK-8 assay; assay type: functional, cell-based; settings: HCT-116, 72 h
PC-3 = experiment: Antiproliferative activity against human PC-3 cells incubated for 72 hrs and measured by CCK-8 assay; assay type: functional, cell-based; settings: PC-3, 72 h
[5] = Cytotoxicity against human HELF cells incubated for 72 hrs and measured by CCK-8 assay; assay type: toxicity, cell-based
NCI-H2228 [6] = experiment: Antiproliferative activity against EML4-ALK-positive human NCI-H2228 cells incubated for 3 days at 25 to 100 nM and assessed as decrease in number of colonies by colony formation assay; assay type: functional, cell-based; settings: dose 25-100 nM, time 3.0 day
NCI-H2228 [7] = experiment: Inhibition of cell migration in EML4-ALK-positive human NCI-H2228 cells assessed as relative migration rate at 5 nM measured after 24 hrs by cell scratch assay (reference value: 21.4 %); assay type: functional; design: scale not given: the % may be the effect or the level left
NCI-H2228 [8] = experiment: Inhibition of cell migration in EML4-ALK-positive human NCI-H2228 cells assessed as relative migration rate at 10 nM measured after 24 hrs by cell scratch assay (reference value: 21.4 %); assay type: functional; design: scale not given: the % may be the effect or the level left
NCI-H2228 [9] = experiment: Inhibition of cell migration in EML4-ALK-positive human NCI-H2228 cells assessed as relative migration rate at 5 nM measured after 48 hrs by cell scratch assay (reference value: 35.99 %); assay type: functional; design: scale not given: the % may be the effect or the level left
NCI-H2228 [10] = experiment: Inhibition of cell migration in EML4-ALK-positive human NCI-H2228 cells assessed as relative migration rate at 10 nM measured after 48 hrs by cell scratch assay (reference value: 35.99 %); assay type: functional; design: scale not given: the % may be the effect or the level left
NCI-H2228 [11] = experiment: Induction of apoptosis in EML4-ALK-positive human NCI-H2228 cells assessed as increase in apoptotic cells at 100 to 200 nM measured after 48 hrs by AO/EB staining based inverted fluorescence microscopic analysis; assay type: functional, cell-based; settings: dose 100-200 nM, DDE = dose-dependent effect
NCI-H2228 [12] = experiment: Induction of apoptosis in EML4-ALK-positive human NCI-H2228 cells assessed as increase in apoptotic cells at 100 to 200 nM measured after 48 hrs by Hoechst 33342 staining based assay; assay type: functional, cell-based; settings: dose 100-200 nM, DDE = dose-dependent effect
NCI-H2228 [13] = experiment: Induction of apoptosis in EML4-ALK-positive human NCI-H2228 cells assessed as apoptotic rate at 100 nM measured after 48 hrs by annexin V-FITC/propidium iodide staining based flow cytometry (reference value: 6.6%); assay type: functional
NCI-H2228 [14] = experiment: Induction of apoptosis in EML4-ALK-positive human NCI-H2228 cells assessed as apoptotic rate at 200 nM measured after 48 hrs by annexin V-FITC/propidium iodide staining based flow cytometry (reference value: 6.6%); assay type: functional
NCI-H2228 [15] = experiment: Cell cycle arrest in EML4-ALK-positive human NCI-H2228 cells assessed as cells accumulation at G0/G1 phase at 25 nM (reference value: 53.24%); assay type: functional
NCI-H2228 [16] = experiment: Cell cycle arrest in EML4-ALK-positive human NCI-H2228 cells assessed as cells accumulation at G2/M phase at 25 nM (reference value: 11.28%); assay type: functional
NCI-H2228 [17] = experiment: Cell cycle arrest in EML4-ALK-positive human NCI-H2228 cells assessed as cells accumulation at S phase at 25 nM (reference value: 35.48%); assay type: functional
NCI-H2228 [18] = experiment: Cell cycle arrest in EML4-ALK-positive human NCI-H2228 cells assessed as cells accumulation at G0/G1 phase at 50 nM (reference value: 53.24%); assay type: functional
NCI-H2228 [19] = experiment: Cell cycle arrest in EML4-ALK-positive human NCI-H2228 cells assessed as cells accumulation at G2/M phase at 50 nM (reference value: 11.28%); assay type: functional
NCI-H2228 [20] = experiment: Cell cycle arrest in EML4-ALK-positive human NCI-H2228 cells assessed as cells accumulation at S phase at 50 nM (reference value: 35.48%); assay type: functional
NCI-H2228 [21] = experiment: Cell cycle arrest in EML4-ALK-positive human NCI-H2228 cells assessed as cells accumulation at G0/G1 phase at 100 nM (reference value: 53.24%); assay type: functional
NCI-H2228 [22] = experiment: Cell cycle arrest in EML4-ALK-positive human NCI-H2228 cells assessed as cells accumulation at G2/M phase at 100 nM (reference value: 11.28%); assay type: functional
NCI-H2228 [23] = experiment: Cell cycle arrest in EML4-ALK-positive human NCI-H2228 cells assessed as cells accumulation at S phase at 100 nM (reference value: 35.48%); assay type: functional
[24] = Metabolic stability in Sprague-Dawley rat liver microsomes assessed as half life at 10 uM preincubated for 5 mins followed by NADPH addition and measured upto 60 mins by HPLC analysis; assay type: ADME, Microsome
[25] = Intrinsic clearance in Sprague-Dawley rat liver microsomes at 10 uM preincubated for 5 mins followed by NADPH addition and measured upto 60 mins by HPLC analysis; assay type: ADME, Microsome; settings: read-out: CLH
[26] = Intrinsic clearance in Sprague-Dawley rat liver at 10 uM preincubated for 5 mins followed by NADPH addition and measured upto 60 mins by HPLC analysis; assay type: ADME, tissue-based; settings: read-out: CLH
[27] = Metabolic stability in Sprague-Dawley rat liver microsomes assessed as compound remaining at 10 uM preincubated for 5 mins followed by NADPH addition and measured upto 60 mins by HPLC analysis; assay type: ADME, Microsome; settings: read-out: Stability
[28] = Metabolic stability in Sprague-Dawley rat liver microsomes assessed as compound remaining at 10 uM preincubated for 5 mins and measured upto 60 mins by HPLC analysis; assay type: ADME, Microsome; settings: read-out: Stability
NCI-H2228 [29] = experiment: Antitumor activity against EML4-ALK-positive human NCI-H2228 cells xenografted in female BALB/c nude mouse assessed as tumor growth inhibition at 50 mg/kg, IG administered every 2 days for 7 times; assay type: functional; settings: NCI-H2228, po, 48 h, time 2 day, read-out: TGI
[30] = Toxicity in female BALB/c nude mouse xenografted with EML4-ALK-positive human NCI-H2228 cells assessed as body weight loss at 25 to 50 mg/kg, IG administered every 2 days for 7 times; assay type: organism-based; settings: in vivo, po, 48 h, dose 25-50 mg/kg, time 2 day
NCI-H3122 = experiment: cells; settings: Homo sapiens, NCI-H3122, 72 h
Description: Antiproliferative activity against EML4-ALK-positive human NCI-H3122 cells incubated for 72 hrs and measured by CCK-8 assay

NCI-H2228 [31] = experiment: cells; settings: Homo sapiens, NCI-H2228, 72 h
Description: Antiproliferative activity against EML4-ALK-positive human NCI-H2228 cells incubated for 72 hrs and measured by CCK-8 assay

KARPAS-299 = experiment: cells; settings: Homo sapiens, KARPAS-299, 72 h
Description: Antiproliferative activity against NPM-ALK-positive human KARPAS-299 cells incubated for 72 hrs and measured by CCK-8 assay

A549 = experiment: cells; settings: Homo sapiens, A549, 72 h
Description: Antiproliferative activity against EGFR-positive human A549 cells incubated for 72 hrs and measured by CCK-8 assay

CC(C)S(=O)(=O)c1ccccc1Nc1nc(Nc2ccc3c(NC(=O)CN4CCCC4)n[nH]c3c2)ncc1Cl
IC50 [1]: 0.0016 µM
IC50 [2]: 0.00071 µM
IC50 [3]: 0.0013 µM
IC50 [4]: > 1 µM
IC50 (NCI-H460): 8.21 µM
IC50 (NCI-H1581): 1.87 µM
IC50 (MCF7): 2.22 µM
IC50 (HCT-116): 1.56 µM
IC50 (PC-3): 1.23 µM
IC50 at 72 h [5]: > 20 µM
Activity (NCI-H2228 [6]): Active
Activity (NCI-H2228 [7]): 7.3%
Activity (NCI-H2228 [8]): 2.31%
Activity (NCI-H2228 [9]): 17.02%
Activity (NCI-H2228 [10]): 5.01%
Activity (NCI-H2228 [11]): Dde
Activity (NCI-H2228 [12]): Dde
Activity (NCI-H2228 [13]): 18.83%
Activity (NCI-H2228 [14]): 23.28%
Activity (NCI-H2228 [15]): 45.1%
Activity (NCI-H2228 [16]): 45.5%
Activity (NCI-H2228 [17]): 9.4%
Activity (NCI-H2228 [18]): 31.29%
Activity (NCI-H2228 [19]): 61.31%
Activity (NCI-H2228 [20]): 7.4%
Activity (NCI-H2228 [21]): 26.77%
Activity (NCI-H2228 [22]): 73.23%
Activity (NCI-H2228 [23]): 0%
half-life at 10 µM [24]: 16.3 min
microsomal CLint at 10 µM [25]: 84.9 µL/min/mg
CLint scaled at 10 µM [26]: 153 mL/min/kg
remaining at 1 h, 10 µM [27]: 7.5%
remaining at 1 h, 10 µM [28]: 86.2%
inhibition in vivo at 50 mg/kg (NCI-H2228 [29]): 70.5%
Activity [30]: Non-Toxic
IC50 (NCI-H3122): 0.012 µM
IC50 (NCI-H2228 [31]): 0.017 µM
IC50 (KARPAS-299): 0.015 µM
IC50 (A549): 1.33 µM
